Bounds are passed on as bounds.

This assay addresses T1, glucocorticoid receptor (Homo sapiens, UniProt P04150).
T1 construct: host or cells: A549 human lung epithelial cells (sonicated cell extract)
T1 sequence (P04150 1-777): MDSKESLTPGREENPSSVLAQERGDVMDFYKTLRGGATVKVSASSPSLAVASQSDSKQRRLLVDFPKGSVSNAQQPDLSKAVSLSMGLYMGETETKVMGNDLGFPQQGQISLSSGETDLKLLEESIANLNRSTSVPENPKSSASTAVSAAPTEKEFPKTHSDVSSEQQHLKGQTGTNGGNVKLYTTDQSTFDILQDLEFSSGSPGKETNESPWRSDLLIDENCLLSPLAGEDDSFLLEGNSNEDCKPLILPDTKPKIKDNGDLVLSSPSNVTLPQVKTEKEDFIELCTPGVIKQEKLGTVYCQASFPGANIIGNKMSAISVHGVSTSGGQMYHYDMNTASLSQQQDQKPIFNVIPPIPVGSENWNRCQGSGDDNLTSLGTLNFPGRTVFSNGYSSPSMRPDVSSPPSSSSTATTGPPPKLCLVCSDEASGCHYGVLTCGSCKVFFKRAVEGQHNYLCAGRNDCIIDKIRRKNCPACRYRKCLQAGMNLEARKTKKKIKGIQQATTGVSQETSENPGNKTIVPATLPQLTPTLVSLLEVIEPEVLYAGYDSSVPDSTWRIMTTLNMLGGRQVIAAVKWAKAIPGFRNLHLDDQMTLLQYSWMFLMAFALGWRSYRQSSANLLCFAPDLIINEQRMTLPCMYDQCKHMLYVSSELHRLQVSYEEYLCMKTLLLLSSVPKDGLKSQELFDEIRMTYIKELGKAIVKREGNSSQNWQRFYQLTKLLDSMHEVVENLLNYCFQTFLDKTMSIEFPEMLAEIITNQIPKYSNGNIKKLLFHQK
In words: Glucocorticoid Receptor Binding Assay ([3H]-dexamethasone displacement, A549 cell extract). The settings on record: A549 human lung epithelial cell extract, 1.86 nM [3H]-dexamethasone; read-out: GR Ki. On the procedure: Glucocorticoid Receptor Binding Assay:
A549 human lung epithelial cells (ATCC) are grown at a scale where gram quantity cell pellets are obtained. Harvested cell pellets are washed twice in cold phosphate buffered saline, centrifuged, and resuspended in cold assay binding buffer. The assay binding buffer consists of 10% glycerol, 50 mM Tris-HCl (pH7.2), 75 mM sodium chloride, 1.5 mM magnesium chloride, 1.5 mM EDTA, and 10 mM sodium molybdate. Cell suspensions were lysed via sonication, centrifuged, and the “extract” supernatant is snap frozen and stored at −80C. until needed.
GR binding assays are performed in a final volume of 140 ul containing 50-200 ug of A549 cell extract and 1.86 nM [^3H]-dexamethasone (Amersham) plus varying concentrations of test compound or vehicle. Briefly, assays are prepared at RT in 96-well Fisher 3356 plates, each well containing 100 ul of A549 cell extract, 20 ul of [^3H]-dexamethasone, and 20 ul of test compound/vehicle. Incubations are carried out at 4 degrees celsius for 16 hours. After incubation, 70 ul of 3× dextran-coated charcoal solution is added to each reaction, mixed, and incubated for 8 minutes at RT. 3×-dextran-coated charcoal solution consists of 250 ml assay binding buffer, 3.75 g Norit A charcoal (Sigma), and 1.25 g dextran T-70 (Amersham). Charcoal/unbound radioligand complexes are removed by centrifugation of the plate and 140 ul of supernatant from each well is transferred to another 96 well Optiplate (Packard Instruments). 200 ul of Microscint-20 scinillant (Packard Instruments) is added to each well and amount of receptor bound radioligand is determined using Packard Instruments TopCount instrument.
IC50 values, defined as the concentration of test compound required to decrease [^3H]-dexamethasone binding by 50%, are then determined. Ki values for each respective test compound can then be calculated by application of the Cheng-Prusoff equation as described in Cheng et al., Relationship Between The Inhibition Constant (Ki) and The Concentration of Inhibitor Which Causes 50% Inhibition (IC50) of an Enzymatic Reaction, Biochem. Pharmacol., 22: 3099-31088; (1973).
For orientation: Ki means a dissociation constant, usually derived from enzyme kinetics or from competition with a known ligand. Take `COC(=O)c1cccc(-c2noc(CN3C(=O)C(c4cc(C)c(O)c(C)c4)(c4cc(C)c(O)c(C)c4)c4ccccc43)n2)c1` [Example 141, 3-{5-[3,3-Bis-(4-hydroxy-3,5-dimethyl-phenyl)-2-oxo-2,3-dihydro-indol-1-ylmethyl]-[1,2,4]oxadiazol-3-yl}-benzoic acid methyl ester]: the Ki was ≤ 500 nM. With `Cc1cc(C2(c3cc(C)c(O)c(C)c3)C(=O)N(Cc3ccccc3Cl)c3c(C)cccc32)cc(C)c1O` [Example 24, 1-(2-Chloro-benzyl)-3,3-bis-(4-hydroxy-3,5-dimethyl-phenyl)-7-methyl-1,3-dihydro-indol-2-one], the Ki was ≤ 1000 nM. In the case of `Cc1cc(C2(c3cc(C)c(O)c(C)c3)C(=O)N(Cc3noc(C4CCC4)n3)c3ccccc32)cc(C)c1O` [Example 86, 1-(5-Cyclobutyl-[1,2,4]oxadiazol-3-ylmethyl)-3,3-bis-(4-hydroxy-3,5-dimethyl-phenyl)-1,3-dihydro-indol-2-one], the Ki is ≤ 500 nM.

Take `Cc1cc(C2(c3cc(C)c(O)c(C)c3)C(=O)N(Cc3ccccc3Cl)c3ccc(Br)cc32)cc(C)c1O` [Example 19, 5-Bromo-1-(2-chloro-benzyl)-3,3-bis-(4-hydroxy-3,5-dimethyl-phenyl)-1,3-dihydro-indol-2-one]: the Ki was ≤ 1000 nM. In the case of `Cc1cc(C2(c3cc(C)c(O)c(C)c3)C(=O)N(Cc3cccc(OC(F)(F)F)c3)c3ccccc32)cc(C)c1O` [Example 8, 3,3-Bis-(4-hydroxy-3,5-dimethyl-phenyl)-1-(3-trifluoromethoxy-benzyl)-1,3-dihydro-indol-2-one], the Ki was ≤ 500 nM.

Consider `Cc1ccc2c(c1)C(c1cc(C)c(O)c(C)c1)(c1cc(C)c(O)c(C)c1)C(=O)N2Cc1ccccc1Cl` [Example 22, 1-(2-Chloro-benzyl)-3,3-bis-(4-hydroxy-3,5-dimethyl-phenyl)-5-methyl-1,3-dihydro-indol-2-one], for which the Ki is ≤ 500 nM. The result for `COc1nccc(N2C(=O)C(c3cc(C)c(O)c(C)c3)(c3cc(C)c(O)c(C)c3)c3ccccc32)n1` [Example 143, 3,3-Bis-(4-hydroxy-3,5-dimethyl-phenyl)-1-(2-methoxy-pyrimidin-4-yl)-1,3-dihydro-indol-2-one] reads ≤ 500 nM.

For `CCOCCN1C(=O)C(c2cc(C)c(O)c(C)c2)(c2cc(C)c(O)c(C)c2)c2ccccc21` [Example 80, 1-(2-Ethoxy-ethyl)-3,3-bis-(4-hydroxy-3,5-dimethyl-phenyl)-1,3-dihydro-indol-2-one], the Ki was ≤ 500 nM. With `Cc1cc(C2(c3cc(C)c(O)c(C)c3)C(=O)N(Cc3ccccc3C(F)(F)F)c3ccccc32)cc(C)c1O` [Example 53, 3,3-Bis-(4-hydroxy-3,5-dimethyl-phenyl)-1-(2-trifluoromethyl-benzyl)-1,3-dihydro-indol-2-one], the Ki was ≤ 1000 nM. The result for `C#CCN1C(=O)C(c2cc(C)c(O)c(C)c2)(c2cc(C)c(O)c(C)c2)c2ccccc21` [Example 101, 3,3-Bis-(4-hydroxy-3,5-dimethyl-phenyl)-1-prop-2-ynyl-1,3-dihydro-indol-2-one] reads ≤ 500 nM; that for `CCCCCN1C(=O)C(c2cc(C)c(O)c(C)c2)(c2cc(C)c(O)c(C)c2)c2ccccc21` [Example 77, 3,3-Bis-(4-hydroxy-3,5-dimethyl-phenyl)-1-pentyl-1,3-dihydro-indol-2-one], ≤ 500 nM; that for `Cc1cc(C2(c3cc(C)c(O)c(C)c3)C(=O)N(c3ccccc3)c3ccccc32)cc(C)c1O` [Example 126, 3,3-Bis-(4-hydroxy-3,5-dimethyl-phenyl)-1-phenyl-1,3-dihydro-indol-2-one], ≤ 500 nM. As to `Cc1cc(C2(c3cc(C)c(O)c(C)c3)C(=O)N(Cc3ccc([N+](=O)[O-])cc3)c3ccccc32)cc(C)c1O` [Example 62, 3,3-Bis-(4-hydroxy-3,5-dimethyl-phenyl)-1-(4-nitro-benzyl)-1,3-dihydro-indol-2-one], the Ki is ≤ 500 nM. To `CCCN1C(=O)C(c2cc(C)c(O)c(C)c2)(c2cc(C)c(O)c(C)c2)c2ccccc21` [Example 5, 3,3-Bis-(4-hydroxy-3,5-dimethyl-phenyl)-1-propyl-1,3-dihydro-indol-2-one] belongs ≤ 500 nM; to `Cc1cc(C2(c3cc(C)c(O)c(C)c3)C(=O)N(CC#N)c3ccccc32)cc(C)c1O` [Example 78, [3,3-Bis-(4-hydroxy-3,5-dimethyl-phenyl)-2-oxo-2,3-dihydro-indol-1-yl]-acetonitrile], ≤ 500 nM. On to `Cc1cc(C2(c3cc(C)c(O)c(C)c3)C(=O)N(c3ccncc3)c3ccccc32)cc(C)c1O` [Example 136, 3,3-Bis-(4-hydroxy-3,5-dimethyl-phenyl)-1-pyridin-4-yl-1,3-dihydro-indol-2-one], for which the Ki is ≤ 500 nM.

On to `Cc1cc(C2(c3cc(C)c(O)c(C)c3)C(=O)N(Cc3ccccc3Cl)c3cccc(Cl)c32)cc(C)c1O` [Example 26, 4-Chloro-1-(2-chloro-benzyl)-3,3-bis-(4-hydroxy-3,5-dimethyl-phenyl)-1,3-dihydro-indol-2-one], for which the inhibition constant Ki is ≤ 500 nM. `COc1ccc(-c2noc(CN3C(=O)C(c4cc(C)c(O)c(C)c4)(c4cc(C)c(O)c(C)c4)c4ccccc43)n2)cc1` [Example 142, 3,3-Bis-(4-hydroxy-3,5-dimethyl-phenyl)-1-[3-(4-methoxy-phenyl)-[1,2,4]oxadiazol-5-ylmethyl]-1,3-dihydro-indol-2-one]: the Ki is ≤ 1000 nM. For the compound `Cc1cc(C2(c3cc(C)c(O)c(C)c3)C(=O)N(Cc3ccc([N+](=O)[O-])o3)c3ccccc32)cc(C)c1O` [Example 73, 3,3-Bis-(4-hydroxy-3,5-dimethyl-phenyl)-1-(5-nitro-furan-2-ylmethyl)-1,3-dihydro-indol-2-one], the Ki is ≤ 500 nM. `Cc1cc(C2(c3cc(C)c(O)c(C)c3)C(=O)N(Cc3ccccc3Br)c3ccccc32)cc(C)c1O` [Example 63, 1-(2-Bromo-benzyl)-3,3-bis-(4-hydroxy-3,5-dimethyl-phenyl)-1,3-dihydro-indol-2-one]: the Ki is ≤ 500 nM.

Regarding `Cc1cc(C2(c3cc(C)c(O)c(C)c3)C(=O)N(Cc3c(C)noc3C)c3ccccc32)cc(C)c1O` [Example 9, 1-(3,5-Dimethyl-isoxazol-4-ylmethyl)-3,3-bis-(4-hydroxy-3,5-dimethyl-phenyl)-1,3-dihydro-indol-2-one], the Ki was ≤ 500 nM. As for `Cc1cc(C2(c3cc(C)c(O)c(C)c3)C(=O)N(Cc3ccc(Cl)cc3F)c3ccccc32)cc(C)c1O` [Example 83, 1-(4-Chloro-2-fluoro-benzyl)-3,3-bis-(4-hydroxy-3,5-dimethyl-phenyl)-1,3-dihydro-indol-2-one], the Ki was ≤ 500 nM. On to `CCc1nc(CN2C(=O)C(c3cc(C)c(O)c(C)c3)(c3cc(C)c(O)c(C)c3)c3ccccc32)cs1` [Example 90, 1-(2-Ethyl-thiazol-4-ylmethyl)-3,3-bis-(4-hydroxy-3,5-dimethyl-phenyl)-1,3-dihydro-indol-2-one], for which the Ki is ≤ 1000 nM. To `Cc1cc(C2(c3cc(C)c(O)c(C)c3)C(=O)N(Cc3ccc4ccccc4n3)c3ccccc32)cc(C)c1O` [Example 97, 3,3-Bis-(4-hydroxy-3,5-dimethyl-phenyl)-1-quinolin-2-ylmethyl-1,3-dihydro-indol-2-one] belongs ≤ 500 nM. To `Cc1cc(C2(c3cc(C)c(O)c(C)c3)C(=O)N(Cc3cccc(Br)c3)c3ccccc32)cc(C)c1O` [Example 64, 1-(3-Bromo-benzyl)-3,3-bis-(4-hydroxy-3,5-dimethyl-phenyl)-1,3-dihydro-indol-2-one] belongs ≤ 500 nM.

The values above are taken from patent publication US7250442B2, “Dihydroindol-2-one derivatives as steroid hormone nuclear receptor modulators” (Eli Lilly and Company, priority 2003, dated 2007).
